Measured values reported in patent US20260042727A1, “COMPLEX OF 3-HYDROXY-3-METHYLBUTYRIC ACID AND SALT THEREOF, AND PREPARATION METHOD THEREFOR” (NANJING NUTRABUILDING BIO-TECH CO., LTD., priority 2023, published 2026).

What was measured:
[1] = Solubility of 3-hydroxy-3-methylbutyrate salts and complexes; assay type: physicochemical
Text: The solubility of various 3-hydroxy-3-methylbutyrate salts and the complexes of Examples was each determined.

[2] = Stability (moisture content) at 23° C. and 92.5% humidity; assay type: physicochemical; details: temperature 23° C., humidity 92.5%
Protocol: The stability of various 3-hydroxy-3-methylbutyrate salts and the complexes of the present disclosure was each measured at 23° C. and 92.5% humidity, and the results are shown in Table 7.

| Compound | Solubility [1] [g/100] | moisture content ([2]; 30 min) [%] | moisture content ([2]; 1 h) [%] | moisture content ([2]; 2 h) [%] | moisture content ([2]; 4 h) [%] | moisture content ([2]; 6 h) [%] | moisture content ([2]; 7 h) [%] | moisture content ([2]; 11 h) [%] | moisture content ([2]; 22 h) [%] |
| --- | --- | --- | --- | --- | --- | --- | --- | --- | --- |
| CC(C)(O)CC(=O)O [HMB-Ca complex, 3-hydroxy-3-methylbutyric acid·calcium 3-hydroxy-3-methylbutyrate complex] | 32 | 0.14 | 0.29 | 0.47 | 0.87 | 1.02 | 1.13 | 1.37 | 2.40 |
| CC(C)(O)CC(=O)O [HMB-K complex, 3-hydroxy-3-methylbutyric acid·potassium 3-hydroxy-3-methylbutyrate complex] | 225 | 0.29 | 0.59 | 0.97 | 1.80 | 2.11 | 2.35 | 2.85 | 4.98 |
| CC(C)(O)CC(=O)O [HMB-Na complex, 3-hydroxy-3-methylbutyric acid·sodium 3-hydroxy-3-methylbutyrate complex] | 135 | 0.22 | 0.46 | 0.75 | 1.39 | 1.62 | 1.81 | 2.19 | 3.83 |
| CC(C)(O)CC(=O)[O-].[K+] [potassium 3-hydroxy-3-methylbutyrate, reference compound] | 101.1 | 0.42 | 0.85 | 1.39 | 2.57 | 3.02 | 3.35 | 4.07 | 7.11 |
| CC(C)(O)CC(=O)[O-].[Na+] [sodium 3-hydroxy-3-methylbutyrate, reference compound] | 72.9 | 0.32 | 0.65 | 1.07 | 1.98 | 2.32 | 2.58 | 3.13 | 5.47 |
| calcium 3-hydroxy-3-methylbutyrate [reference compound] |  | 0.19 | 0.38 | 0.63 | 1.16 | 1.36 | 1.51 | 1.83 | 3.20 |
| magnesium 3-hydroxy-3-methylbutyrate [reference compound] | 6 | 0.11 | 0.23 | 0.38 | 0.70 | 0.81 | 0.91 | 1.10 | 1.92 |
